{"source": "paper PMC11206987", "about": "“Investigation of the Efficacy of Benzylidene-3-methyl-2-thioxothiazolidin-4-one Analogs with Antioxidant Activities on the Inhibition of Mushroom and Mammal Tyrosinases” (Molecules, 2024)", "key": {"mushroom tyrosinase [1]": {"system": "mushroom tyrosinase", "assay": "Mushroom tyrosinase inhibition assay (dopachrome, 475 nm)", "assay_type": "biochemical", "details": "for IC50: mushroom tyrosinase", "experimental": "The ability of the BMTTZD analogs to inhibit mushroom tyrosinase was evaluated in the presence of L-dopa and L-tyrosine as previously described."}, "mushroom tyrosinase [2]": {"target": "mushroom tyrosinase (Agaricus bisporus, UniProt C7FF04)", "sequence (C7FF04 1-392)": "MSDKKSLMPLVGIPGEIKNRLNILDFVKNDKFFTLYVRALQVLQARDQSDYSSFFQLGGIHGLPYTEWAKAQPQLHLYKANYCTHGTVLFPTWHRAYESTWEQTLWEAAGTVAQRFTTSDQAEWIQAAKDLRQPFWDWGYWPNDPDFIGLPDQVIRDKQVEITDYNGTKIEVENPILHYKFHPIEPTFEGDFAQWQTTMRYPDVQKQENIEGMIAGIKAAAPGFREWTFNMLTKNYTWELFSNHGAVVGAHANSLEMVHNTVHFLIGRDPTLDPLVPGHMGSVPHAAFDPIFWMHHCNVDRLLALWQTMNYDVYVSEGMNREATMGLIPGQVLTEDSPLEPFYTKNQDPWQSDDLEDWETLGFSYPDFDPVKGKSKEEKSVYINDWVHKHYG", "assay": "Kinetic study of mushroom tyrosinase inhibition (Lineweaver–Burk and Dixon plots)", "assay_type": "biochemical", "details": "substrate L-dopa 0.5–16 mM", "experimental": "The initial rate of dopachrome generation was examined at various BMTTZD analog concentrations (0, 1.5, 3, and 6 µM for analog 1; 0, 2, 4, and 8 µM for analogs 2 and 5; and 0, 0.05, 0.1, and 0.2 µM for 3) with 0.5, 1, 2, 4, 8, or 16 mM L-dopa as substrates using mushroom tyrosinase. Plotting the reciprocal of the dopachrome formation rate against the inverse of the L-dopa concentration produced Lineweaver–Burk plots (Figure 2). Each Lineweaver–Burk plot created four straight lines with different slopes. For analogs 1 and 3, the four straight lines met at a point on the y-axis, whereas for analogs 2 and 5, the four straight lines converged at a point in the second quadrant.\nThe Dixon plots produced lines that met in the second quadrant. The x-coordinate of the convergence position represents the inhibition constant (Ki) of the ligand.\nLineweaver–Burk (L-B) plots were acquired for the kinetic analysis of analogs against mushroom tyrosinase as previously described. In brief, 10 µL of a solution of DMSO and BMTTZD analogs 1–3 or 5 (final concentrations: 0, 1.5, 3, and 6 µM for analog 1; 0, 2, 4, and 8 µM for analogs 2 and 5; and 0, 0.05, 0.1, and 0.2 µM for analog 3) in each well of a 96-well plate was mixed with 20 µL of aqueous mushroom tyrosinase solution (200 units/mL) and 170 µL of an aqueous substrate mixture (various concentrations of L-dopa (final concentrations: 16, 8, 4, 2, 1 and 0.5 mM) and 17.2 mM sodium phosphate buffer (pH 6.5)). During incubation (15 min at 37 °C), the increase in the well absorbance (ΔOD475/min) was calculated at 1 min intervals utilizing a VersaMax® reader."}, "B16F10 cells": {"system": "B16F10 cells", "assay": "Cell cytotoxicity test (EZ-Cytox)", "assay_type": "cell-based, murine", "details": "2.5–20 µM, 48 and 72 h", "experimental": "Because analogs 1–3 and 5 exerted potent mushroom tyrosinase inhibitory activities, their effects on anti-melanogenic and cellular tyrosinase activities were evaluated in B16F10 murine cells. Prior to examining their cellular activity, their cell viabilities were investigated. Cell viability was evaluated at 48 and 72 h after treatment with five different concentrations of analogs.\nThe effect on B16F10 cytotoxicity was assessed following a previously described method. Cells (1 × 10^4 cells/well of a 96-well plate) were cultivated for 24 h with 5% CO2 at 37 °C. The cells were exposed to the BMTTZD analogs (test concentrations: 20, 10, 5, 2.5, and 0 µM) and cultivated with 5% CO2 at 37 °C for 72 h. An EZ-Cytox solution (10 µL; EZ-500, DoGenBio, Seoul, Republic of Korea) was exposed to each well, and the plate was cultivated for 2 h. Cell viability was calculated from the well absorbance measured at 450 nm utilizing a reader (VersaMax®)."}, "[3]": {"assay": "DPPH radical scavenging activity assay", "details": "500 µM", "experimental": "First, the ability of BMTTZD analogs 1–8 to scavenge DPPH radicals was examined using L-ascorbic acid (vitamin C; positive control). All samples were tested at 500 µM.\nThe ability of the BMTTZD analogs to scavenge DPPH radicals was evaluated as previously reported. To each well of a 96-well plate containing analogs 1–8 (5 mM in […]; 20 µL) was added a DPPH solution (0.2 mM in methanol; 180 µL). The mixture was kept in a place without light for 30 min at 25°C to generate DPPH radicals. The well absorbance at 517 nm was measured utilizing a VersaMax® reader. The ability of the analogs to remove DPPH radicals was compared to that of vitamin C."}, "[4]": {"assay": "ABTS+ radical scavenging activity assay", "details": "100 µM", "experimental": "Second, the ability of BMTTZD analogs to scavenge ABTS^+ radicals was examined. ABTS^+ radicals were obtained via the oxidation of ABTS using potassium persulfate. All samples (Trolox (positive control) and 1–8) were tested at 100 µM.\nThe ability of the BMTTZD analogs to scavenge ABTS^+ radicals was assessed as previously described, with minor modifications. To a 50 mL tube were added 20 mL aqueous K2S2O8 solution (2.45 mM) and 20 mL aqueous ABTS solution (7 mM). The combined mixture was placed at 22 °C in a place without light for 17 h to generate the ABTS^+ radicals. For adequate absorbance control (0.70 ± 0.02 at 734 nm), methanol was added to the combined mixture. Test compounds (Trolox and analogs 1–8; 10 µL in 10% DMSO/90% EtOH [v/v] solution) were mixed with 90 µL ABTS^+ radical solution. After storage in a place without light for 2 min, the well absorbance at 734 nm was acquired for 10 min every 1 min by using a microplate reader (VersaMax®). All test compounds were tested at 100 µM. The activity of the analogs was compared to that of Trolox."}, "[5]": {"assay": "In vitro ROS scavenging activity assay (SIN-1, DCFH-DA/esterase)", "details": "test sample 40 µM; SIN-1 10 µM", "experimental": "Third, the ability of analogs 1–8 to scavenge in vitro ROS was determined. Esterase was mixed with 2′,7′-dichlorodihydrofluorescein diacetate (DCFH-DA) to produce 2′,7′-dichlorodihydrofluorescein (DCFH). 3-Morpholinosydnonimine (SIN-1) generates ROS that react with DCFH, resulting in the formation of DCF (2′,7′-dichlorofluorescein). Therefore, the ability of analogs 1–8 to scavenge ROS was calculated by measuring the fluorescence of DCF with 10 µM SIN-1 and 40 µM test samples (Trolox (positive control) and analogs 1–8). […] The ability of analogs to scavenge ROS was examined as previously described. To a 15 mL tube were added DCFH-DA solution (1.25 mM; 50 µL), phosphate buffer (50 mM, 4.9 mL), and esterase (600 units/mL; 50 µL). The esterase–DCFH-DA solution was left in a dark place for 30 min. A 10 µL SIN-1 solution was added to each well of a black 96-well plate and mixed with phosphate buffer (180 µL) and Trolox (10 µL) or analogs 1–8 (10 µL). SIN-1, Trolox, and analogs 1–8 were treated at 10, 40, and 40 µM, respectively. After 5 min, 50 µL of the esterase–DCFH-DA solution was added to each well. The well fluorescence of DCF was acquired at 535 nm utilizing a microplate reader (Berthold Advances GmbH & Co., Bad Wildbad, Germany) using a 485 nm excitation wavelength. Trolox was used to compare ROS scavenging activity."}}, "note": "Like-named read-outs stand apart in the source and are kept apart here.", "data": [{"molecule": "CN1C(=O)/C(=C/c2ccc(O)c(O)c2)SC1=S", "note": "[Analog 2, (Z)-5-(3,4-Dihydroxybenzylidene)-3-methyl-2-thioxothiazolidin-4-one]", "values": [{"measurement": "tyrosinase inhibition, fold stronger than kojic acid", "setting": "mushroom tyrosinase [1]; substrate L-dopa", "value": "four times stronger than kojic acid"}, {"measurement": "IC50", "setting": "mushroom tyrosinase [1]; substrate L-dopa, read-out: IC50 (Mean ± SEM, µM) L-Dopa", "value": "6.18 ± 0.17", "unit": "µM"}, {"measurement": "IC50", "setting": "mushroom tyrosinase [1]; substrate L-tyrosine, read-out: IC50 (Mean ± SEM, µM) L-Tyrosine", "value": "3.77 ± 0.47", "unit": "µM"}, {"measurement": "type of tyrosinase inhibition (Lineweaver–Burk plots)", "setting": "mushroom tyrosinase [2]", "value": "mixed-type inhibitors"}, {"measurement": "cytotoxicity (cell viability)", "setting": "B16F10 cells", "value": "significant cytotoxicity in a concentration-dependent manner, even at 2.5 µM"}, {"measurement": "DPPH radical scavenging activity", "setting": "[3]", "value": 93, "unit": "%"}, {"measurement": "ABTS^+ radical scavenging activity", "setting": "[4]", "value": 92, "unit": "%"}]}, {"molecule": "Cc1c(C)c2c(c(C)c1O)CCC(C)(C(=O)O)O2", "note": "(stereo not drawn) [Trolox, reference compound]", "values": [{"measurement": "effect on SIN-1-induced ROS levels", "setting": "[5]", "value": "significantly decreased the SIN-1-induced ROS contents"}, {"measurement": "ABTS^+ radical scavenging activity", "setting": "[4]", "value": 95, "unit": "%"}]}]}
